From patent US8835458B2 (Hanmi Science Co., Ltd, priority 2010, dated 2014)
Structures can show the parent of a compound that is named as a salt. Where two headings read alike, the source gives them in different places.

Key:
[1] = system: MDA-MB-231 breast cancer cell lines; experiment: Evaluation of inhibition on cell growth (MTS); format: cell-based; settings: Homo sapiens, MDA-MB-231, 120 hours
Procedure, shortened: (§1)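 GI50 values come from growth equations comparing treated, untreated and medium-only wells. Fibroblasts (Hs27, Balb/c3t3) got 72 h compound exposure with SRB read-out at 540 nm after TCA fixing. MDA-MB-231 got 120 h with MTS at 490 nm, across 10 μM˜0.1 nM.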

[2] = Toxicity to normal cells (SRB); format: cell-based, mouse; settings: mouse, Balb/c3t3 fibroblasts (normal cell line), read-out: BalB/C (GI50)
Procedure, shortened: as §1

[3] = Toxicity to normal cells (SRB); format: cell-based, human; settings: human, Hs27 fibroblasts (normal cell line)
Procedure, shortened: as §1

SMILES | GI50 [1] [nM] | GI50 at 72 h [2] [µM] | GI50 at 72 h [3] [µM]
CN[C@@H](C)C(=O)N[C@H](C(=O)N1CCC[C@H]1C(=O)Nc1cc2c(Nc3ccc(Cl)cc3Cl)ncnc2cc1OC)C(C)(C)C [Example 58, (S)—N-(4-(2,4-dichlorophenylamino)-7-methoxyquinazolin-6-yl)-1-((S)-3,3-dimethyl-2-((S)-2-(methylamino)propanamido)butanoyl)pyrrolidine-2-carboxamide hydrochloride] | ≤ 100 | > 10 | > 10
CN[C@@H](C)C(=O)N[C@H](C(=O)N1CCC[C@H]1C(=O)Nc1cc2c(Nc3c(F)cccc3F)ncnc2cc1OC)C(C)(C)C [Example 59, (S)—N-(4-(2,6-difluorophenylamino)-7-methoxyquinazolin-6-yl)-1-((S)-3,3-dimethyl-2-((S)-2-(methylamino)propanamido)butanoyl)pyrrolidine-2-carboxamide] | ≤ 100 | > 10 | > 10
CCN1CCN(c2ccc(Nc3ncnc4cc(OC)c(NC(=O)[C@@H]5CCCN5C(=O)[C@@H](NC(=O)[C@H](C)NC)C(C)(C)C)cc34)cc2)CC1 [Example 60, (S)-1-((S)-3,3-dimethyl-2-((S)-2-(methylamino)propanamido)butanoyl)-N-(4-(4-(4-ethylpiperazin-1-yl)phenylamino)-7-methoxyquinazolin-6-yl)pyrrolidine-2-carboxamide] | 100 to 1000 | > 10 | > 10
CN[C@@H](C)C(=O)N[C@H](C(=O)N1CCC[C@H]1C(=O)Nc1cc2c(Nc3ccc4c(c3)OCO4)ncnc2cc1OC)C(C)(C)C [Example 61, (S)—N-(4-(benzo[d][1,3]dioxol-5-ylamino)-7-methoxyquinazolin-6-yl)-1-((S)-3,3-dimethyl-2-((S)-2-(methylamino)propanamido)butanoyl)pyrrolidine-2-carboxamide] | ≥ 1000 | > 10 | > 10
CN[C@@H](C)C(=O)N[C@H](C(=O)N1CCC[C@H]1C(=O)Nc1cc2c(Nc3cnc4ccccc4c3)ncnc2cc1OC)C(C)(C)C [Example 62, (S)-1-((S)-3,3-dimethyl-2-((S)-2-(methylamino)propanamido)butanoyl)-N-(7-methoxy-4-(quinoline-3-ylamino)quinazolin-6-yl)pyrrolidine-2-carboxamide dihydrochloride] | 100 to 1000 | > 10 | > 10
CN[C@@H](C)C(=O)N[C@H](C(=O)N1CCC[C@H]1C(=O)Nc1cc2c(Nc3cccc4ncccc34)ncnc2cc1OC)C(C)(C)C [Example 63, (S)-1-((S)-3,3-dimethyl-2-((S)-2-(methylamino)propanamido)butanoyl)-N-(7-methoxy-4-(quinoline-5-ylamino)quinazolin-6-yl)pyrrolidine-2-carboxamide hydrochloride] | ≤ 100 | > 10 | > 10
CN[C@@H](C)C(=O)N[C@H](C(=O)N1CCC[C@H]1C(=O)Nc1cc2c(Nc3ccc(N(C)C)cc3)ncnc2cc1OC)C(C)(C)C [Example 64, (S)-1-((S)-3,3-dimethyl-2-((S)-2-(methylamino)propanamido)butanoyl)-N-(7-methoxy-4-(4-dimethylamino)phenylamino)quinazolin-6-yl)pyrrolidine-2-carboxamide dihydrochloride] | ≤ 100 | > 10 | > 10
CN[C@@H](C)C(=O)N[C@H](C(=O)N1CCC[C@H]1C(=O)Nc1cc2c(Nc3ccc(N4CCCC4)cc3)ncnc2cc1OC)C(C)(C)C [Example 65, (S)-1-((S)-3,3-dimethyl-2-((S)-2-(methylamino)propanamido)butanoyl)-N-(7-methoxy-4-(4-(pyrrolidin-1-yl)phenylamino)quinazolin-6-yl)pyrrolidine-2-carboxamide dihydrochloride] | ≤ 100 | > 10 | > 10
CN[C@@H](C)C(=O)N[C@H](C(=O)N1CCC[C@H]1C(=O)Nc1cc2c(Nc3ccc(N4CCCCC4)cc3)ncnc2cc1OC)C(C)(C)C [Example 66, (S)-1-((S)-3,3-dimethyl-2-((S)-2-(methylamino)propanamido)butanoyl)-N-(7-methoxy-4-(4-(piperidin-1-yl)phenylamino)quinazolin-6-yl)pyrrolidine-2-carboxamide dihydrochloride] | ≤ 100 | > 10 | > 10
CN[C@@H](C)C(=O)N[C@H](C(=O)N1CCC[C@H]1C(=O)Nc1cc2c(Nc3ccc(N4CCN(C)CC4)cc3)ncnc2cc1OC)C(C)(C)C [Example 67, (S)-1-((S)-3,3-dimethyl-2-((S)-2-(methylamino)propanamido)butanoyl)-N-(7-methoxy-4-(4-(4-methylpiperazin-1-yl)phenylamino)quinazolin-6-yl)pyrrolidine-2-carboxamide dihydrochloride] | ≤ 100 | > 10 | > 10
CCN(CC)c1ccc(Nc2ncnc3cc(OC)c(NC(=O)[C@@H]4CCCN4C(=O)[C@@H](NC(=O)[C@H](C)NC)C(C)(C)C)cc23)cc1 [Example 68, (S)-1-((S)-3,3-dimethyl-2-((S)-2-(methylamino)propanamido)butanoyl)-N-(7-methoxy-4-(4-diethylamino)phenylamino)quinazolin-6-yl)pyrrolidine-2-carboxamide dihydrochloride] | ≤ 100 | > 10 | > 10
CN[C@@H](C)C(=O)N[C@H](C(=O)N1CCC[C@H]1C(=O)Nc1cc2c(Nc3ccc(NC(C)=O)cc3)ncnc2cc1OC)C(C)(C)C [Example 69, (S)—N-(4-(4-acetamidophenylamino)-7-methoxyquinazolin-6-yl)-1-((S)-3,3-dimethyl-2-((S)-2-(methylamino)propanamido)butanoyl)pyrrolidine-2-carboxamide] | ≤ 100 | > 10 | > 10
CCN1CCN(c2ccc(Nc3ncnc4cc(OC)c(NC(=O)[C@@H]5CCCN5C(=O)[C@@H](NC(=O)[C@H](C)NC)C(C)(C)C)cc34)cc2C(F)(F)F)CC1 [Example 70, (S)-1-((S)-3,3-dimethyl-2-((S)-2-(methylamino)propanamido)butanoyl)-N-(4-(4-(4-ethylpiperazin-1-yl)-3-(trifluoromethyl)phenylamino)-7-methoxyquinazolin-6-yl)pyrrolidine-2-carboxamide dihydrochloride] | ≤ 100 | > 10 | > 10
CCN1CCN(c2ccc(Nc3ncnc4cc(OC)c(NC(=O)[C@@H]5CCCN5C(=O)[C@@H](NC(=O)[C@H](C)NC)C(C)(C)C)cc34)cc2F)CC1 [Example 71, (S)-1-((S)-3,3-dimethyl-2-((S)-2-(methylamino)propanamido)butanoyl)-N-(4-(4-(4-ethylpiperazin-1-yl)-3-fluorophenylamino)-7-methoxyquinazolin-6-yl)pyrrolidine-2-carboxamide dihydrochloride] | ≤ 100 | > 10 | > 10
CN[C@@H](C)C(=O)N[C@H](C(=O)N1CCC[C@H]1C(=O)Nc1cc2c(Nc3ccc(N4CCS(=O)(=O)CC4)cc3)ncnc2cc1OC)C(C)(C)C [Example 72, (S)—N-(4-((1,1-dioxide-4-thiomorpholinyl)phenylamino)-7-methoxyquinazolin-6-yl)-1-((S)-3,3-dimethyl-2-((S)-2-(methylamino)propanamido)butanoyl)pyrrolidine-2-carboxamide] | ≤ 100 | > 10 | > 10
CN[C@@H](C)C(=O)N[C@H](C(=O)N1CCC[C@H]1C(=O)Nc1cc2c(Nc3ccncc3)ncnc2cc1OC)C(C)(C)C [Example 73, (S)-1-((S)-3,3-dimethyl-2-((S)-2-(methylamino)propanamido)butanoyl)-N-(7-methoxy-4-(pyridin-4-ylamino)quinazolin-6-yl)pyrrolidine-2-carboxamide hydrochloride] | ≤ 100 | > 10 | > 10
CNC(=O)c1ccc(Nc2ncnc3cc(OC)c(NC(=O)[C@@H]4CCCN4C(=O)[C@@H](NC(=O)[C@H](C)NC)C(C)(C)C)cc23)cc1 [Example 74, (S)-1-((S)-3,3-dimethyl-2-((S)-2-(methylamino)propanamido)butanoyl)-N-(7-methoxy-4-(4-(methylcarbamoyl)phenylamino)quinazolin-6-yl)pyrrolidine-2-carboxamide] | ≤ 100 | > 10 | > 10
CN[C@@H](C)C(=O)N[C@H](C(=O)N1CCC[C@H]1C(=O)Nc1cc2c(Nc3cc(NC(C)=O)ccc3Cl)ncnc2cc1OC)C(C)(C)C [Example 75, (S)—N-(4-(5-acetamino-2-chlorophenylamino)-7-methoxyquinazolin-6-yl)-1-((S)-3,3-dimethyl-2-((S)-2-(methylamino)propanamido)butanoyl)pyrrolidine-2-carboxamide] | ≤ 100 | > 10 | > 10
CN[C@@H](C)C(=O)N[C@H](C(=O)N1CCC[C@H]1C(=O)Nc1cc2c(Nc3ccc(NC(=O)c4ccccc4)cc3)ncnc2cc1OC)C(C)(C)C [Example 76, (S)—N-(4-(4-benzamidophenylamino)-7-methoxyquinazolin-6-yl)-1-((S)-3,3-dimethyl-2-((S)-2-(methylamino)propanamido)butanoyl)pyrrolidine-2-carboxamide] | ≤ 100 | > 10 | > 10
